Tested on: yeast genes (level of expressed mRNA)
Experiment: DNA chip analysis of expressed mRNA of yeast genes after 2 h culture with a toxic chemical substance
Assay type: cell-based, Saccharomyces cerevisiae S288C
Procedure, shortened: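 S. cerevisiae S288C grown at 25° C in YPD; toxicant added at log phase at growth-inhibitory, non-lethal levels for 2 h, untreated cells as control. Poly(A) mRNA reverse-transcribed with Cy3/Cy5-dUTP, hybridized to whole-genome chip at 65° C >12 h; value is fluorescence ratio versus untreated.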

HgCl2 [(3)]
The level of expressed mRNA in the presence of chemical substance/ (yeast gene YNL074C, ratio to control without chemical substance, 2 h culture): 1.8 | The level of expressed mRNA in the presence of chemical substance/ (yeast gene YNL092W, ratio to control without chemical substance, 2 h culture): 2.4 | The level of expressed mRNA in the presence of chemical substance/The level of expressed mRNA in the absence of chemical substance (yeast gene YNL093W): 0.4 | The level of expressed mRNA in the presence of chemical substance/ (yeast gene YNL115C, ratio to control without chemical substance, 2 h culture): 1.6 | The level of expressed mRNA in the presence of chemical substance/ (yeast gene YNL156C, ratio to control without chemical substance, 2 h culture): 0.9 | The level of expressed mRNA in the presence of chemical substance/ (yeast gene YNL234W, ratio to control without chemical substance, 2 h culture): 0.6 | The level of expressed mRNA in the presence of chemical substance/ (yeast gene YNL281W, ratio to control without chemical): 2.0 | The level of expressed mRNA in the presence of chemical substance/ (yeast gene YNL305C, ratio to control without chemical): 2.7 | The level of expressed mRNA in the presence of chemical substance/The level of expressed mRNA in the absence of chemical substance (yeast gene YNL333W): 1.7 | The level of expressed mRNA in the presence of chemical substance/The level of expressed mRNA in the absence of chemical substance (yeast gene YNR010W): 0.5 | The level of expressed mRNA in the presence of chemical substance/ (yeast gene YNR068C, ratio to control without chemical): 2.3 | The level of expressed mRNA in the presence of chemical substance/The level of expressed mRNA in the absence of chemical substance (yeast gene YNR069C): 0.7 | The level of expressed mRNA in the presence of chemical substance/in the absence of chemical substance (yeast gene YNR072W): 0.5 | The level of expressed mRNA in the presence of chemical substance/The level of expressed mRNA in the absence of chemical substance (yeast gene YOL013C): 1.0 | The level of expressed mRNA in the presence of chemical substance/ (yeast gene YOL032W, ratio to control without chemical): 2.0 | The level of expressed mRNA in the presence of chemical substance/ (yeast gene YOL036W, ratio to control without chemical): 1.3 | The level of expressed mRNA in the presence of chemical substance/ (yeast gene YOL047C, ratio to control without chemical): 1.1 | The level of expressed mRNA in the presence of chemical substance/ (yeast gene YOL071W, ratio to control without chemical): 1.7 | The level of expressed mRNA in the presence of chemical substance/ (yeast gene YOL082W, ratio to control without chemical): 1.6 | The level of expressed mRNA in the presence of chemical substance/ (yeast gene YOL083W, ratio to control without chemical): 1.2 | The level of expressed mRNA in the presence of chemical substance/in the absence of chemical substance (yeast gene YOL096C): 1.2 | The level of expressed mRNA in the presence of chemical substance/ (yeast gene YOL117W, ratio to control without chemical): 0.5 | The level of expressed mRNA in the presence of chemical substance/ (yeast gene YOL131W, ratio to control without chemical): 0.6 | The level of expressed mRNA in the presence of chemical substance/ (yeast gene YOL150C, ratio to control without chemical substance, 2 h culture): 9.9 | The level of expressed mRNA in the presence of chemical substance/ (yeast gene YOL162W, ratio to control without chemical): 1.7 | The level of expressed mRNA in the presence of chemical substance/The level of expressed mRNA in the absence of chemical substance (yeast gene YOL164W): 1.0 | The level of expressed mRNA in the presence of chemical substance/ (yeast gene YOR019W, ratio to control without chemical): 0.8 | The level of expressed mRNA in the presence of chemical substance/The level of expressed mRNA in the absence of chemical substance (yeast gene YOR036W): 1.4 | The level of expressed mRNA in the presence of chemical substance/The level of expressed mRNA in the absence of chemical substance (yeast gene YOR117W): 1.7 | The level of expressed mRNA in the presence of chemical substance/The level of expressed mRNA in the absence of chemical substance (yeast gene YOR124C): 1.3 | The level of expressed mRNA in the presence of chemical substance/The level of expressed mRNA in the absence of chemical substance (yeast gene YOR132W): 0.8 | The level of expressed mRNA in the presence of chemical substance/The level of expressed mRNA in the absence of chemical substance (yeast gene YOR157C): 1.2 | The level of expressed mRNA in the presence of chemical substance/in the absence of chemical substance (yeast gene YOR180C): 1.0 | The level of expressed mRNA in the presence of chemical substance/The level of expressed mRNA in the absence of chemical substance (yeast gene YOR181W): 1.1 | The level of expressed mRNA in the presence of chemical substance/The level of expressed mRNA in the absence of chemical substance (yeast gene YOR185C): 1.9 | The level of expressed mRNA in the presence of chemical substance/ (yeast gene YOR197W, ratio to control without chemical): 1.1 | The level of expressed mRNA in the presence of chemical substance/The level of expressed mRNA in the absence of chemical substance (yeast gene YOR198C): 1.4 | The level of expressed mRNA in the presence of chemical substance/The level of expressed mRNA in the absence of chemical substance (yeast gene YOR259C): 0.8 | The level of expressed mRNA in the presence of chemical substance/The level of expressed mRNA in the absence of chemical substance (yeast gene YOR261C): 0.6 | The level of expressed mRNA in the presence of chemical substance/The level of expressed mRNA in the absence of chemical substance (yeast gene YOR288C): 1.1 | The level of expressed mRNA in the presence of chemical substance/The level of expressed mRNA in the absence of chemical substance (yeast gene YOR355W): 1.1 | The level of expressed mRNA in the presence of chemical substance/in the absence of chemical substance (yeast gene YOR363C): 0.9 | The level of expressed mRNA in the presence of chemical substance/The level of expressed mRNA in the absence of chemical substance (yeast gene YOR383C): 2.6 | The level of expressed mRNA in the presence of chemical substance/ (yeast gene YPL087W, ratio to control without chemical): 3.0 | The level of expressed mRNA in the presence of chemical substance/The level of expressed mRNA in the absence of chemical substance (yeast gene YPL089C): 0.5 | The level of expressed mRNA in the presence of chemical substance/The level of expressed mRNA in the absence of chemical substance (yeast gene YPL109C): 0.5 | The level of expressed mRNA in the presence of chemical substance/The level of expressed mRNA in the absence of chemical substance (yeast gene YPL149W): 0.6 | The level of expressed mRNA in the presence of chemical substance/The level of expressed mRNA in the absence of chemical substance (yeast gene YPL154C): 4.2 | The level of expressed mRNA in the presence of chemical substance/ (yeast gene YPL196W, ratio to control without chemical): 1.3 | The level of expressed mRNA in the presence of chemical substance/ (yeast gene YPL206C, ratio to control without chemical): 1.4 | The level of expressed mRNA in the presence of chemical substance/ (yeast gene YPL222W, ratio to control without chemical): 0.8 | The level of expressed mRNA in the presence of chemical substance/ (yeast gene YPR023C, ratio to control without chemical): 1.2 | The level of expressed mRNA in the presence of chemical substance/The level of expressed mRNA in the absence of chemical substance (yeast gene YPR103W): 1.3 | The level of expressed mRNA in the presence of chemical substance/The level of expressed mRNA in the absence of chemical substance (yeast gene YPR108W): 1.3 | The level of expressed mRNA in the presence of chemical substance/ (yeast gene YPR151C, ratio to control without chemical): 1.5 | The level of expressed mRNA in the presence of chemical substance/in the absence of chemical substance (yeast gene YPR184W): 5.7

Reference: US20050112573A1, “Method of detecting toxic substance” (priority 2001, published 2005)
